According to US20250236878A1 (priority 2019, published 2025):
Read-outs that look alike come from different tables or passages of the source.

Experiments:
[1] = system: field mustard (Brassica rapa) seedlings; assay: Root hair and lateral root elongation in liquid-culture grown field mustard seedlings (Example 13); conditions: for average lateral root length compared to untreated control / average root hair length compared to untreated control / Experiment A: Average Root Hair Length Per Plant (mm) / Experiment B: Average Length of Three Longest Lateral Roots Per Plant (mm) / increases in average lateral root length relative to control / increases in root hair length relative to control: liquid culture; for average lateral root length compared to untreated control / average root hair length compared to untreated control / increases in average lateral root length relative to control / increases in root hair length relative to control: approximately three days; for Experiment A: Average Root Hair Length Per Plant (mm) / Experiment B: Average Length of Three Longest Lateral Roots Per Plant (mm) / Experiment A: Average Root Hair Length Per Plant, % of UTC / Experiment B: Average Length of Three Longest Lateral Roots Per Plant, % of UTC: field mustard seedlings, peptide 10 μM; for Experiment A: Average Root Hair Length Per Plant (mm) / Experiment B: Average Length of Three Longest Lateral Roots Per Plant (mm): about three days; for Experiment A: Average Root Hair Length Per Plant (mm): UTC = 0.137; for Experiment B: Average Length of Three Longest Lateral Roots Per Plant (mm): UTC = 0.632
[2] = system: Citrus trees infected with CLas; set-up: species or system Citrus sinesis; conditions: in vivo
[3] = system: Citrus trees infected with Candidatus Liberibacter asiaticus; type: in vivo, Citrus x paradisi
[4] = system: Citrus trees infected with CLas; type: in vivo, Citrus x paradisi; Citrus sinesis; conditions: average of 'Ruby Red' and 'Valencia'
From the text: Treatments as previously described in Example 3; β-1,3-Endoglucanase from barley SEQ ID NO: 731 (Treatment 1) and Bt.4Q7Flg22 from Bacillus thurigiensis SEQ ID NO: 226 (Treatment 5) increased fruit yield (kg/tree) as described in Table 56. Fruit quality, and juice quality of ‘Valencia’ oranges are described in Table 57.
For direct comparison of the treatment results between grapefruit (‘Ruby Red’) and orange (‘Valencia’) are referenced in Table 56 above.

[5] = system: Citrus trees infected with CLas; assay: Recovery composition trunk injection: 'Valencia' orange fruit yield (Examples 3, 19); type: in vivo, Citrus sinesis; conditions: for Average Yield (Relative to Untreated) / Average Yield (kg per tree): 'Valencia' orange; for Average Yield (Relative to Untreated) / Average Yield (kg per tree) / increased yield compared to the untreated control: trunk injection; for increased yield compared to the untreated control: 'Valencia' trees; for yield, average relative to control: 'Valencia', combined average of 2 sites (Table 56)
[6] = system: HLB-infected citrus trees; assay: Citrus trials of Examples 20-24: fruit yield, size, count and drop, average over orange and grapefruit trials; type: in vivo, Citrus sinesis; Citrus paradisi
Experimental: All fruit with a diameter greater than or equal to 1.6 inches (40 mm) were hand-picked and collected for each tree. The total “Fruit Weight” (in kilograms) per individual tree was measured and recorded. Trees with total fruit weights less than or greater than 2 standard deviations (2STDEV) from the trial mean were considered to be outliers and removed from the dataset. Fruit size was assessed as the “Average Weight per Fruit” in grams (weight of 20 random fruit per tree, divided by 20) and “Average Fruit Diameter” in millimeters, as described in Example 1. The “Average Fruit Count” per tree was assessed as the total “Fruit Weight” divided by “Average Weight per Fruit”. “Fruit Drop” was assessed as for Example 1. Fruit quality was assessed as for Example 2, with the exception that one set of fruit consisted for 15 total fruit, each corresponding to a sampling of 3 fruit from 5 trees of the same experimental treatment block. Each set of 15 fruit were weighed (gram; g) and then juiced together. Average yield, % fruit drop, fruit size, and juice quality for each of the tested compositions are described in Examples 20-24.

[7] = system: HLB-infected citrus trees; set-up: species or system Citrus sinesis; Citrus paradisi; conditions: in vivo
[8] = system: Candidatus Liberibacter asiaticus (CLas); conditions: in vivo
[9] = system: Citrus trees infected with Candidatus Liberibacter asiaticus (CLas); set-up: species or system Citrus sinensis; conditions: in vivo
[10] = system: Citrus trees infected with Candidatus Liberibacter asiaticus (CLas); set-up: species or system Citrus sinensis; conditions: in vivo; remark: listed apart in the source
[11] = system: Citrus trees infected with Candidatus Liberibacter asiaticus; set-up: species or system Citrus x paradisi; conditions: in vivo
[12] = system: corn hybrids Beck's 6127 BHMF and 6127 DVMF; conditions: in vivo

Molecule | average lateral root length compared to untreated control [1] | average root hair length compared to untreated control [1] | Experiment A: Average Root Hair Length Per Plant (mm) [1] [mm] | Experiment B: Average Length of Three Longest Lateral Roots Per Plant (mm) [1] [mm] | Experiment A: Average Root Hair Length Per Plant, % of UTC [1] | Experiment B: Average Length of Three Longest Lateral Roots Per Plant, % of UTC [1] | also measured
GGIRDAPTGNER [SEQ ID NO: 752] | Increased | increased |  |  |  |  | 
GGARAAPAGEER (Brachypodium distachyon) [SEQ ID NO: 747] | Increased | did not improve | 0.137 | 0.959 | (99% of UTC) | (152% of UTC) | 
N[C@@H](CS)C(=O)O [L-Cysteine, L-cysteine] |  |  |  |  |  |  | Average Fruit Diameter (Relative to Untreated) [2]: (104%); Average Fruit Diameter (mm) [2]: 62.52 mm; Brix:CA Ratio [2]: 12.76; Brix:CA Ratio (Relative to Untreated) [2]: (+1.51); fruit size and ^oBrixc to Citric Acid ratio (Brix:CA) relative to the untreated control [2]: increased; Average Yield (Relative to Untreated) ([3]; […], trunk injection): (101%); Average Yield (kg per tree) ([3]; […], trunk injection): 34.8 kg per tree; Average Yield (Relative to Untreated), Average of 2 sites [4]: (103%); Average Yield (Relative to Untreated) [5]: (105%); Average Yield (kg per tree) [5]: 42.3 kg per tree; increased yield compared to the untreated control [5]: +2.0 kg per tree; yield, average relative to control [5]: 103%
GGISASPTGN (listed as Lactuca sativa) [SEQ ID NO: 749] | Increased | increased | 0.182 | 1.058 | (132% of UTC) | (168% of UTC) | increases in average lateral root length relative to control [1]: +68%; increases in root hair length relative to control [1]: +32%
GGIRVAATGKER (Glycine max) [SEQ ID NO: 608] | Increased | increased |  |  |  |  | 
GGIRAAPTGNER (Glycine max) [GmRHPP, Root Hair Promoting Peptide, Glycine max] | Increased | increased | 0.172 | 0.971 | (125% of UTC) | (154% of UTC) | increases in average lateral root length relative to control [1]: +54%; increases in root hair length relative to control [1]: +25%; increased yield (kg fresh fruit per tree) relative to control trees treated with surfactant control alone, on average ([6]; foliar (Table 73)): 13.9%; decrease in fruit drop relative to surfactant control, on average ([6]; foliar (Table 74)): 22%; more fruit retained at harvest relative to surfactant control, on average ([6]; foliar (Table 74)): 19%; effect on fruit size ([6]; foliar (Table 75)): no effect; fruit weigh more than fruit from control trees treated with surfactant alone, on average ([6]; foliar (Table 75)): 6.2%; ^oBrixc:Citric Acid Ratio and pounds-solids per tree [7]: increased; more total sugar than control trees treated with surfactant alone, on average [7]: 13.500; reduction in CLas bacterial titers compared to initial levels [8]: 17%
GIRDAPAGNE (listed as Macleaya cordata) [SEQ ID NO: 746] | Increased | increased | 0.165 | 0.822 | (120% of UTC) | (130% of UTC) | 
DRLSSGKRINSAKDDAAGLAIA (listed as Bacillus thuringiensis) [Bt.4Q7Flg22Syn01, Modified FLG22-Bt4Q7 (S13K)] |  |  |  |  |  |  | total increased yield (kg) per tree [9]: 26%; Brix [10]: 9.4; juice content [10]: 46%
GGIRATPTENER (Glycine max) [SEQ ID NO: 607] | Increased | increased |  |  |  |  | 
DRLSSGKRINSASDDAAGLAIA (listed as Bacillus thuringiensis) [Bt.4Q7Flg22, Flg22 flagellin-associated polypeptide from Bacillus thuringiensis strain 4Q7] |  |  |  |  |  |  | fruit size, juice volume, % juice content and ^oBrixc to Citric Acid ratio (Brix:CA) relative to the untreated control [11]: increased; Average Fruit Diameter (Relative to Untreated) [2]: (101%); Average Fruit Diameter (mm) [2]: 60.72 mm; Brix:CA Ratio [2]: 12.11; Brix:CA Ratio (Relative to Untreated) [2]: (+0.86); fruit size and ^oBrixc to Citric Acid ratio (Brix:CA) relative to the untreated control [2]: increased; average yield benefit over the control corn plants [12]: +6.44 flu/Ac; total increased yield (kg) per tree [9]: 33%; Average Yield (Relative to Untreated) ([3]; in vivo): (108%); Average Yield (kg per tree) ([3]; in vivo): 37.2 kg per tree; increased yield compared to the untreated control ([3]; in vivo): 2.6 kg per tree; Average Yield (Relative to Untreated), Average of 2 sites [4]: (113%); decreased bacterial titers relative to the untreated control [8]: 20%; reduction in CLas bacterial titers compared to initial levels [8]: 16%; Average Yield (Relative to Untreated) [5]: (119%); Average Yield (kg per tree) [5]: 48.1 kg per tree; increased yield compared to the untreated control [5]: 7.8 kg per tree; yield, average relative to control [5]: 113%
GGIRAAPT (listed as Physcomitrella patens) [SEQ ID NO: 745] | Increased | increased | 0.145 | 0.853 | (105% of UTC) | (135% of UTC) | 
GGIRAARTGNER [SEQ ID NO: 753] | Increased | increased |  |  |  |  | 
GGIRTAITGNE (listed as Vigna angularis) [SEQ ID NO: 748] | Increased | increased | 0.151 | 0.929 | (110% of UTC) | (147% of UTC) | 
GGIRRARTGNE (listed as Vigna radiata) [SEQ ID NO: 750] | Increased | increased | 0.147 |  | (107% of UTC) |  | 
GGIRAAPTGKER [SEQ ID NO: 754] | Increased | increased |  |  |  |  | 
GGIRASPTGNER [SEQ ID NO: 755] | Increased | increased |  |  |  |  | 
GGIRRAPTGNER [SEQ ID NO: 751] | Increased | increased |  |  |  |  | 
